In brackets after ≈: the same amount, converted by molar mass. Residues, ends and D or L forms follow the SMILES beside them.
What was measured:
[1] = test system: A. baumannii ATCC 19606
[2] = test system: P. aeruginosa ZEM9A; conditions: ZEM9A, pH 7.4
[3] = test system: S. maltophilia; conditions: pH 7.4
[4] = test system: K. pneumoniae NCTC 418
[5] = test system: E. coli W3110
[6] = test system: P. aeruginosa ZEM-1A; conditions: ZEM-1A, pH 7.4
[7] = test system: S. aureus Newman; conditions: Newman, pH 7.4
[8] = test system: B. cenocepacia; conditions: pH 7.4
[9] = test system: E. cloacae; conditions: pH 7.4
[10] = test system: P. aeruginosa PA14; conditions: PA14, pH 7.4
[11] = test system: P. aeruginosa PAO1
[12] = test system: K. pneumoniae OXA-48; conditions: OXA-48, pH 7.4
[13] = test system: S aureus COL (methicillin-resistant Staphylococcus aureus)

- MIC at pH 5.0, A. baumannii ATCC 19606 ([1]; ATCC 19606, pH 5): 8 μg/mL
- MIC at pH 7.4, A. baumannii ATCC 19606 ([1]; ATCC 19606, pH 7.4): 4 μg/mL
- MIC at pH 8.0, A. baumannii ATCC 19606 ([1]; ATCC 19606, pH 8): 2 μg/mL
- MIC, P. aeruginosa ZEM9A [2]: 32 µg/mL (≈ 7.31 µM)
- MIC, S. maltophilia [3]: 4 µg/mL (≈ 0.914 µM)
- MIC at pH 5.0, K. pneumoniae NCTC 418 ([4]; NCTC 418, pH 5): > 64 μg/mL
- MIC at pH 7.4, K. pneumoniae NCTC 418 ([4]; NCTC 418, pH 7.4): > 64 μg/mL
- MIC at pH 8.0, K. pneumoniae NCTC 418 ([4]; NCTC 418, pH 8): 8 μg/mL
- MIC at pH 5.0, E. coli W3110 ([5]; W3110, pH 5): 8 μg/mL
- MIC at pH 7.4, E. coli W3110 ([5]; W3110, pH 7.4): 4 μg/mL
- MIC at pH 8.0, E. coli W3110 ([5]; W3110, pH 8): 2 μg/mL
- MIC, P. aeruginosa ZEM-1A [6]: 4 µg/mL (≈ 0.914 µM)
- MIC, S. aureus Newman [7]: >64 µg/mL
- MIC, B. cenocepacia [8]: >64 µg/mL
- MIC, E. cloacae [9]: 4 µg/mL (≈ 0.914 µM)
- MIC, P. aeruginosa PA14 [10]: 4 µg/mL (≈ 0.914 µM)
- MIC at pH 5.0, P. aeruginosa PAO1 ([11]; PAO1, pH 5): 8 μg/mL
- MIC at pH 7.4, P. aeruginosa PAO1 ([11]; PAO1, pH 7.4): 4 μg/mL
- MIC at pH 8.0, P. aeruginosa PAO1 ([11]; PAO1, pH 8): 4 μg/mL
- MIC, K. pneumoniae OXA-48 [12]: 8 µg/mL (≈ 1.83 µM)
- MIC at pH 5.0, S aureus COL ([13]; COL (methicillin-resistant, pH 5)): > 64 μg/mL
- MIC at pH 7.4, S aureus COL ([13]; COL (methicillin-resistant, pH 7.4)): > 64 μg/mL
- MIC at pH 8.0, S aureus COL ([13]; COL (methicillin-resistant, pH 8)): 8 μg/mL
Compound: CC(C)C[C@H](NC(=O)[C@H](CC(C)C)NC(=O)[C@H](CCCCN)NC(=O)[C@H](CCCCNC(=O)[C@H](CC(C)C)NC(=O)[C@H](CCCCNC(=O)[C@H](CC(C)C)NC(=O)[C@@H](N)CCCCN)NC(=O)[C@H](CC(C)C)NC(=O)[C@@H](N)CCCCN)NC(=O)[C@H](CC(C)C)NC(=O)[C@H](CCCCNC(=O)[C@H](CC(C)C)NC(=O)[C@@H](N)CCCCN)NC(=O)[C@H](CC(C)C)NC(=O)[C@@H](N)CCCCN)C(=O)NCCCC[C@H](NC(=O)[C@H](CC(C)C)NC(=O)[C@H](CC(C)C)NC(=O)[C@H](CCCCN)NC(=O)[C@H](CCCCNC(=O)[C@H](CC(C)C)NC(=O)[C@H](CCCCNC(=O)[C@H](CC(C)C)NC(=O)[C@@H](N)CCCCN)NC(=O)[C@H](CC(C)C)NC(=O)[C@@H](N)CCCCN)NC(=O)[C@H](CC(C)C)NC(=O)[C@H](CCCCNC(=O)[C@H](CC(C)C)NC(=O)[C@@H](N)CCCCN)NC(=O)[C@H](CC(C)C)NC(=O)[C@@H](N)CCCCN)C(=O)N[C@@H](CC(C)C)C(=O)N[C@@H](CCCCN)C(=O)N[C@@H](CCCCN)C(N)=O [L-X22] (HELM PEPTIDE1{K.L.K.L.K.K.L.L.K.L.K.K.[am]}|PEPTIDE2{[CC(C)C[C@H](NC(=O)[C@@H](N)CCCCN)C(=O)NCCCC[C@H](NC(=O)[C@H](CC(C)C)NC(=O)[C@@H](N)CCCCN)C(=O)[*:2]].L}|PEPTIDE3{K.L}|PEPTIDE4{K.L.K.L.K.K.L.L}|PEPTIDE5{[CC(C)C[C@H](NC(=O)[C@@H](N)CCCCN)C(=O)NCCCC[C@H](NC(=O)[C@H](CC(C)C)NC(=O)[C@@H](N)CCCCN)C(=O)[*:2]].L}|PEPTIDE6{K.L}$PEPTIDE1,PEPTIDE2,5:R3-2:R2|PEPTIDE1,PEPTIDE3,3:R3-2:R2|PEPTIDE4,PEPTIDE5,5:R3-2:R2|PEPTIDE4,PEPTIDE6,3:R3-2:R2|PEPTIDE1,PEPTIDE4,9:R3-8:R2$$$V2.0)

Reference: publication PMC9780108, “An intrinsically disordered antimicrobial peptide dendrimer from stereorandomized virtual screening” (Cell Reports. Physical Science, 2022)
